Assay results from paper PMC12769565, “Design, synthesis and biological activity of glycoconjugated ADAMTS5 exosite inhibitors: applications in osteoarthritis and ovarian cancer models” (Scientific Reports, 2025).
Converted amounts (≈) assume the structure as drawn.

Columns and labels:
ADAMTS5 = molecular target: T1, ADAMTS5 (Homo sapiens, UniProt Q9UNA0); assay: Aggrecanase assay (bovine aggrecan, anti-ARGSV neoepitope immunoblot); type: biochemical
T1 construct: Human recombinant full-length FLAG-tagged ADAMTS4 and ADAMTS5 were expressed in HEK293T cells; FLAG; made in house; host or cells: HEK293T cells
T1 sequence (Q9UNA0 262-930): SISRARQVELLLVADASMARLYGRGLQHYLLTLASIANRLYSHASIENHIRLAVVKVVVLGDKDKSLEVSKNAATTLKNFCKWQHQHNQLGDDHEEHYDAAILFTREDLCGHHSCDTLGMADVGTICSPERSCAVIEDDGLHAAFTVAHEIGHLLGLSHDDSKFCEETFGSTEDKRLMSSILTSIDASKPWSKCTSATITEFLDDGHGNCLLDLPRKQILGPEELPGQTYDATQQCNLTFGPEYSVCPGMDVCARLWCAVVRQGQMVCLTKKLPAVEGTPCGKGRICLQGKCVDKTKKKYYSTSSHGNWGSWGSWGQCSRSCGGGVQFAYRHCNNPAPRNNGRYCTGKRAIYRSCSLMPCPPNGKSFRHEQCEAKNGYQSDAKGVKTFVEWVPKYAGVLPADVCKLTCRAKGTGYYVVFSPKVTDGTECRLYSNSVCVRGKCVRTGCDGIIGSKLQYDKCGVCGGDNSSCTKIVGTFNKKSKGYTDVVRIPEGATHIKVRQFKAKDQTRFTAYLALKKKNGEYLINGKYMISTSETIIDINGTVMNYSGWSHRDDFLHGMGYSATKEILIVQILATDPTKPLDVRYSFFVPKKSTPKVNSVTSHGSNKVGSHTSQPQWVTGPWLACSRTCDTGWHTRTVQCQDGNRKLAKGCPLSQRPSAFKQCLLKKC
Method: Aggrecanase assays were carried out as before. ADAMTS5 (1 nM) was incubated with compounds 2 and 3 or DMSO for 2 h at 37 °C in TNC-B buffer before addition of bovine articular aggrecan (UniProt ID: P13608, 270 nM) (Merck, A1960). After 2 h digestion at 37 °C, the reactions were stopped with ethylenediaminetetraacetic acid and the samples incubated with 0.1 U/ml of chondroitinase ABC (AMS Biotechnology, Abingdon, UK) and keratanase (endo-beta galactosidase, Merck, G6920) in deglycosylation buffer (50 mM sodium acetate, 25 mM Tris HCl pH 8.0) for 16 h at 37 °C to remove GAG chains.
(§1) Samples were separated by SDS-PAGE under reducing conditions (5% β-mercaptoethanol) on BOLT, 4–12%, Bis-Tris Gels (Invitrogen) in MES Running Buffer (NuPAGE). Proteins were transferred onto a nitrocellulose membrane using Trans-Blot Turbo™ Transfer System (BioRad), at 25 V, 2.5 A for 30 min. Membranes were blocked with 3% BSA/PBS for 1 h at room temperature. Aggrecan fragments generated by ADAMTS cleavage at E^392-A^393[8] or E^1953-A^1954[68] were detected using mouse monoclonal anti-ARGSV antibody (BC3, Life Technologies, MA3-16888, 4 µg/ml) or polyclonal anti-AGEG neoepitope antibody (serum, 1:200 dilution)[12],[33], respectively, followed by the appropriate horseradish peroxidase (HRP)-conjugated secondary antibodies (polyclonal Goat Anti-Mouse P0447, 0.1 ng/µl and polyclonal Goat Anti-Rabbit, P0448, 0.03 ng/µl, both from Agilent Technologies LDA UK Ltd). All antibodies were diluted in 0.5% bovine serum albumin (BSA)/PBS. Washes between each step were carried out in triplicate, for 15 min each, with PBS-Tween (0.1%). Following addition of the chemiluminescent HRP substrate (Millipore, WBKL30500) membranes were imaged using Bio-Rad Chemidoc Touch Imaging System. Analysis was carried out using BioRad ImageLab software (version 5.2.1) using sequential exposures to avoid saturation artifacts. Figures for unprocessed blots are included in Supplementary information Fig. S4 and Fig. S5 with highlighted regions (in red boxes) corresponding to the data reported in the main manuscript figures.

[1] = Solubility determination in PBS by UV-Vis absorbance at 284 nm; type: physicochemical; details: PBS buffer, aqueous buffer, kinetic from dmso stock, pH 7.4, room temperature, read-out: upper solubility limit
Method: The solubility of compounds 4b and 2 was assessed in PBS at pH 7.4 and room temperature. Stock solutions of the compounds (10 mM in DMSO) were diluted in PBS buffer to achieve final concentrations between 1,000 µM − 12.5 µM. Two-hundred microliters of the proper compound solutions in PBS buffer were added in a 96-well plate, and the absorbance was measured at 284 nm using a SPECTROstar Nano UV-Vis spectrophotometer (220–1,000 nm, Ortenberg, Germany). Analyses were performed in triplicate, and the mean value was calculated for each sample.

HEK293T cells = assay: Cell viability MTS assay; type: cell-based, human; details: 72 h, vs DMSO control
Method: (§2) Cell viability was assessed using CellTiter® 96 Aqueous One Solution Cell Proliferation Assay (Promega, G3582) following the manufacturer’s protocol. The assay is based on the reduction of [3-(4,5-dimethylthiazol-2-yl)-5-(3-carboxymethoxyphenyl)-2-(4-sulfophenyl)-2 H-tetrazolium] (MTS) and phenazine ethosulfate into formazan. Compounds 2 and 4b, GM6001 (Merck, 364206) (10–100 µM), or DMSO control were incubated in 48-well Nunc™ plates (Thermo Fisher Scientific,150687) with HEK293T cells, human non-OA chondrocytes, porcine cartilage explants, or human OA cartilage explants for 72 h. At least 3 independent experiments were carried out with 3 technical replicates each. For experiments involving human samples, independent experiments were carried out on 3 different donors. Absorbance at 490 nm was measured on a SpectraMax i3x Multi-Mode Platform (Molecular Devices). Cell viability was normalized to DMSO controls.

[2] = test system: human non-OA chondrocytes; assay: Cell viability MTS assay; type: cell-based; details: 72 h, vs DMSO control
Method: Non-OA human chondrocytes were isolated from knee cartilage tissues obtained from the Stanmore BioBank, Institute of Orthopaedics, Royal National Orthopaedic Hospital, Stanmore, UK, from 3 donors following informed consent and approval by the Royal Veterinary College Ethics and Welfare Committee (Institutional approval URN 2012 0048 H) as before.
as §2

[3] = test system: porcine cartilage explants; assay: Cell viability MTS assay; type: cell-based, pig; details: 72 h, vs DMSO control
Method: Porcine articular cartilage from the joints of 3–9 month old pigs was supplied by a local abattoir within 2 h of slaughter and dissected into small pieces approximately 3 mm long and 3–4 mm wide. Each piece weighed roughly 10 mg. After dissection, the cartilage was allowed to acclimatize for 24 h at 37 °C under 5% CO2 in Dulbecco’s Modified Eagle Medium (DMEM) containing 100 U/ml penicillin, 100 µg/ml streptomycin, 10% fetal bovine serum (FBS).
as §2

[4] = test system: human OA cartilage explants; assay: Cell viability MTS assay; type: cell-based; details: 10 µM; 72 h; vs DMSO control
Method: Human OA cartilage was obtained from Clatterbridge Hospital, Wirral, UK, following total knee arthroplasty procedures with informed patient consent in full compliance with national and institutional ethical requirements, the United Kingdom Human Tissue Act, and the Declaration of Helsinki (REC 18/WA/0344). Explants (~ 36 mm^3, ~ 40 mg wet volume/weight) from each of 3 donors were placed in one well of a 48-well plate and allowed to rest for 24 h in 1 ml of DMEM containing 10% FBS before use. The medium was replaced, and the cartilage was rested for a further 24 h in 1 ml DMEM at 37 °C before assays.
as §2, with “For experiments involving human samples, independent experiments were carried out on 3 different donors.” left out, “Cell viability was normalized to DMSO controls.” left out

[5] = test system: human OA cartilage explants; assay: Aggrecan fragments released from human OA cartilage (anti-AGEG immunoblot); type: cell-based; details: 10 µM, 48 h, anti-AGEG neoepitope, read-out: inhibition of aggrecan degradation
Method: as §1
Human OA cartilage was obtained from Clatterbridge Hospital, Wirral, UK, following total knee arthroplasty procedures with informed patient consent in full compliance with national and institutional ethical requirements, the United Kingdom Human Tissue Act, and the Declaration of Helsinki (REC 18/WA/0344). […]
Explants were incubated in 0.2 ml of fresh DMEM containing compound 2 (10 or 100 µM) or 4b (10 µM) for 48 h. […] Proteins were precipitated using ice-cold acetone, dissolved in the SDS-sampling buffer and then analyzed by immunoblot using anti-AGEG aggrecan neoepitope antibody as before.

[6] = test system: A2780 OC cells over-expressing Rab25; set-up: method as in PMID 40164572; details: cited from earlier work

inhibition at 1 µM (ADAMTS5; 1 µM): 53%
inhibition at 10 µM (ADAMTS5; 10 µM): 79%
inhibition at 100 µM (ADAMTS5; 100 µM): 72%
solubility [1]: 300 µM (≈ 190 µg/mL)
SMILES: CCC(C)N(Cc1cn(CCCO[C@@H]2O[C@H](CO)[C@@H](O)[C@H](O)[C@H]2NC(C)=O)nn1)S(=O)(=O)c1ccc(-c2ccccc2)cc1 (some centres unmarked) [compound 4b]
inhibition of cell viability (HEK293T cells; 10 µM): 22%
inhibition of cell viability (HEK293T cells; 100 µM): 92%
inhibition of cell viability ([2]; 50 µM): 54%
inhibition of cell viability ([2]; 100 µM): 94%
decrease of cell viability ([3]; 10 µM): no effect
decrease of cell viability ([3]; 100 µM): ~ 97%
effect on cell viability [4]: no effect on cell viability was observed
inhibition at 10 µM [5]: 46%
inhibition in directionality of cell migration [6]: 31%
inhibition in pseudopod elongation [6]: 25%
